Values joined by “and” are separate entries in the source; they are usually repeats but may differ in a detail not shown here. Identical values can stand only once. Inconclusive results and toxic doses are left out. Rule for the calls: active = survival T/C of 150% or more; inactive = T/C below 125% in these data.
Test system: CD2F1 mice, L1210 leukemia ip, survival T/C
Test: NCI In Vivo Anticancer Drug Screen. Data for tumor model L1210 Leukemia (intraperitoneal) in CD2F1 (CDF1) mice
Conditions: endpoint: mean survival time, higher = longer survival
Method in brief: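 Implant tumor; dose compound or vehicle; measure endpoint in both groups; report treated divided by control.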

[1] = dose: 100.0 mg/kg/injection, schedule: Q04DX002 (ip), vehicle: saline with Tween-80
[2] = dose: 200.0 mg/kg/injection, schedule: Q04DX002 (ip), vehicle: saline with Tween-80
[3] = dose: 400.0 mg/kg/injection, schedule: Q04DX002 (ip), vehicle: saline with Tween-80
[4] = dose: 50.0 mg/kg/injection, schedule: Q04DX002 (ip), vehicle: saline with Tween-80
[5] = dose: 100.0 mg/kg/injection, schedule: Q01DX001 (ip), vehicle: saline with Tween-80
[6] = dose: 200.0 mg/kg/injection, schedule: Q01DX001 (ip), vehicle: saline with Tween-80
[7] = dose: 100.0 mg/kg/injection, schedule: Q01DX009 (ip), vehicle: saline with Tween-80
[8] = dose: 100.0 mg/kg/injection, schedule: Q04DX003 (ip), vehicle: saline with Tween-80
[9] = dose: 200.0 mg/kg/injection, schedule: Q01DX009 (ip), vehicle: saline with Tween-80
[10] = dose: 200.0 mg/kg/injection, schedule: Q04DX003 (ip), vehicle: saline with Tween-80
[11] = dose: 400.0 mg/kg/injection, schedule: Q01DX009 (ip), vehicle: saline with Tween-80
[12] = dose: 400.0 mg/kg/injection, schedule: Q04DX003 (ip), vehicle: saline with Tween-80

Measured: T/C

c1ccc(CCCNc2nnnc3ccccc23)cc1
inactive: [1] 95 % of control | [2] 103 % of control | [3] 91 % of control

O=C(CCl)NC12Nc3ccccc3C1(Cc1ccccc1)CN(C1CCCCC1)C2=O (centres undefined)
inactive: [4] 95 % of control | [5] 100 % of control | [6] 86 % of control | [2] 89 % of control

CC1C(C)C1Cl (centres undefined)
inactive: dose: 50.0 mg/kg/injection, schedule: Q01DX005 (ip), vehicle: saline 95 % of control | dose: 50.0 mg/kg/injection, schedule: Q01DX009 (ip), vehicle: saline 89 % of control | dose: 50.0 mg/kg/injection, schedule: Q04DX002 (ip), vehicle: saline 94 % of control | dose: 100.0 mg/kg/injection, schedule: Q01DX005 (ip), vehicle: saline 95 % of control | dose: 100.0 mg/kg/injection, schedule: Q01DX009 (ip), vehicle: saline 93 % of control | dose: 100.0 mg/kg/injection, schedule: Q04DX002 (ip), vehicle: saline 97 % of control | dose: 200.0 mg/kg/injection, schedule: Q01DX005 (ip), vehicle: saline 109 % of control | dose: 200.0 mg/kg/injection, schedule: Q01DX009 (ip), vehicle: saline 93 % of control | dose: 200.0 mg/kg/injection, schedule: Q04DX002 (ip), vehicle: saline 94 % of control | dose: 400.0 mg/kg/injection, schedule: Q01DX005 (ip), vehicle: saline 106 % of control | dose: 400.0 mg/kg/injection, schedule: Q01DX009 (ip), vehicle: saline 93 % of control | dose: 400.0 mg/kg/injection, schedule: Q04DX002 (ip), vehicle: saline 97 % of control

COc1ccccc1NC(C)=O
inactive: [7] 96 % of control | [8] 101 % of control | [9] 98 % of control | [10] 96 % of control | [11] 96 % of control | [12] 101 % of control

O=c1[nH]c(NCCCCc2ccccc2)c(Br)c(=O)[nH]1
inactive: [5] 91 % of control

S=c1nccc[nH]1.[Pt]
inactive: dose: 3.13 mg/kg/injection, schedule: Q04DX003 (ip), vehicle: distilled water + Tween-80 98 % of control | dose: 6.25 mg/kg/injection, schedule: Q04DX003 (ip), vehicle: distilled water + Tween-80 103 % of control | dose: 12.5 mg/kg/injection, schedule: Q04DX003 (ip), vehicle: distilled water + Tween-80 98 % of control | dose: 25.0 mg/kg/injection, schedule: Q04DX003 (ip), vehicle: distilled water + Tween-80 97 % of control | dose: 50.0 mg/kg/injection, schedule: Q04DX003 (ip), vehicle: distilled water + Tween-80 90 % of control | dose: 100.0 mg/kg/injection, schedule: Q04DX003 (ip), vehicle: distilled water + Tween-80 98 % of control | dose: 200.0 mg/kg/injection, schedule: Q04DX003 (ip), vehicle: distilled water + Tween-80 98 % of control

O=C1NC(=O)C(CCCCO)N1 (centres undefined)
inactive: [5] 101 % of control | [6] 106 % of control | dose: 300.0 mg/kg/injection, schedule: Q01DX001 (ip), vehicle: saline with Tween-80 98 % of control

O=C(O)CCc1ccccc1-c1ccccc1
inactive: [4] 105 % of control | [1] 96 % of control and 97 % of control | [2] 103 % of control and 105 % of control | [3] 100 % of control

Brc1ccc2c(c1)-c1ccccc1C2Br (centres undefined)
inactive: dose: 62.5 mg/kg/injection, schedule: Q04DX003 (ip), vehicle: saline with Tween-80 107 % of control | dose: 125.0 mg/kg/injection, schedule: Q04DX003 (ip), vehicle: saline with Tween-80 109 % of control | dose: 250.0 mg/kg/injection, schedule: Q04DX003 (ip), vehicle: saline with Tween-80 98 % of control

CC1C=CC(C)c2c(-c3ccccc3)oc(-c3ccccc3)c21 (centres undefined)
inactive: [7] 88 % of control | [8] 100 % of control | [9] 86 % of control | [10] 97 % of control | [11] 91 % of control | [12] 96 % of control

CCCCCCC(C)Oc1ccc(Cl)cc1Cl (centres undefined)
inactive: [1] 90 % of control | [2] 90 % of control | [3] 101 % of control

C1CC[N-]CC1.C1CC[N-]CC1.N#C[S-].N#C[S-].[Cu]
inactive: dose: 2.5 mg/kg/injection, schedule: Q04DX003 (ip), vehicle: saline with Tween-80 98 % of control | dose: 5.0 mg/kg/injection, schedule: Q04DX003 (ip), vehicle: saline with Tween-80 92 % of control

Reference: PubChem BioAssay AID256 (DTP/NCI, 2004)
